Measurements published in ChEMBL document CHEMBL1132854, “Structure-based design of ketone-containing, tripeptidyl human rhinovirus 3C protease inhibitors” (Bioorg Med Chem Lett, 2000).
Square brackets hold non-standard residues; d marks the D form. Peptide text beside a SMILES is read from it. * marks the point of attachment. Cbz = O=C(OCc1ccccc1)*; Dap = NC[C@H](N)C(=O)O

How the values were obtained:
Human rhinovirus sp. [1] = assay: Compound was evaluated for in vitro cytotoxic concentration against HRV serotype-14 (HRV-14); assay type: functional
Human rhinovirus sp. [2] = assay: Compound was evaluated for in vitro effective concentration against HRV serotype-14 (HRV-14); assay type: functional, organism-based
Human rhinovirus sp. [3] = assay: Compound was evaluated for the inhibition of human rhinovirus 3C protease (3CP); No inhibition; assay type: functional, organism-based
Human rhinovirus sp. [4] = assay: Compound was evaluated for the inhibition of human rhinovirus 3C protease (3CP); assay type: functional, organism-based
Human rhinovirus sp. [5] = assay: Compound was evaluated for in vitro cytotoxic concentration against HRV serotype-14 (HRV-10); assay type: functional
Human rhinovirus sp. [6] = assay: Compound was evaluated for in vitro cytotoxic concentration against HRV serotype-14 (HRV-1A); assay type: functional
Human rhinovirus sp. [7] = assay: Compound was evaluated for in vitro effective concentration against HRV serotype-14 (HRV-10); assay type: functional, organism-based
Human rhinovirus sp. [8] = assay: Compound was evaluated for in vitro effective concentration against HRV serotype-14 (HRV-1A); assay type: functional, organism-based

Structure (SMILES)	CC50 (Human rhinovirus sp. [1]) [µM]	EC50 (Human rhinovirus sp. [2]) [µM]	Ki (Human rhinovirus sp. [3])	Ki (Human rhinovirus sp. [4]) [nM]	CC50 (Human rhinovirus sp. [5]) [µM]	CC50 (Human rhinovirus sp. [6]) [µM]	EC50 (Human rhinovirus sp. [7]) [nM]	EC50 (Human rhinovirus sp. [8]) [nM]
CC(C)C[C@H](NC(=O)OCc1ccccc1)C(=O)N[C@@H](Cc1ccccc1)C(=O)N[C@@H](CCC(N)=O)C(O)c1nc2ccccc2s1 (stereo partly specified)	80	32	Not Active					
CC(C)C[C@H](NC(=O)OCc1ccccc1)C(=O)N[C@@H](Cc1ccccc1)C(=O)N[C@@H](C[C@@H]1CCNC1=O)C(=O)c1cc2ccccc2s1	> 10	> 10		4700				
Cc1cc(C(=O)N[C@H](C(=O)N[C@@H](Cc2ccc(F)cc2)C(=O)N[C@@H](C[C@@H]2CCNC2=O)C(=O)c2nc3ccccc3s2)C(C)C)no1	250	0.34		4.5	250	250	250	340
CC(C)C[C@H](NC(=O)OCc1ccccc1)C(=O)N[C@@H](Cc1ccccc1)C(=O)N[C@@H](C[C@@H]1CCNC1=O)C(O)c1nc2ccccc2s1 (stereo partly specified)	63	7.9		34000				
CC(C)C[C@H](NC(=O)OCc1ccccc1)C(=O)N[C@@H](Cc1ccccc1)C(=O)N[C@@H](C[C@@H]1CCNC1=O)C(=O)c1ccccc1	> 10	> 10		3200				
CC(=O)NC[C@H](NC(=O)[C@H](Cc1ccccc1)NC(=O)[C@H](CC(C)C)NC(=O)OCc1ccccc1)C(=O)c1nc2ccccc2s1	25	> 25		1700				
CC(C)C[C@H](NC(=O)OCc1ccccc1)C(=O)N[C@@H](Cc1ccccc1)C(=O)N[C@@H](CCC(N)=O)C(=O)c1nc2ccccc2s1	> 100	17		3500				
CC(C)C[C@H](NC(=O)OCc1ccccc1)C(=O)N[C@@H](Cc1ccccc1)C(=O)N[C@@H](C[C@@H]1CCNC1=O)C(=O)c1nccs1	240	7.9		700				
CC(C)C[C@H](NC(=O)OCc1ccccc1)C(=O)N[C@@H](Cc1ccccc1)C(=O)N[C@@H](C[C@@H]1CCNC1=O)C(=O)c1ccccn1	200	4		170				
CC(C)CC(NC(=O)OCc1ccccc1)C(=O)N[C@@H](Cc1ccccc1)C(=O)NC(CC1CCNC1=O)C(=O)c1nc2ccccc2s1 (stereo partly specified)	> 320	3.2		65				
CC(=O)NC[C@@H](C=O)NC(=O)[C@H](Cc1ccccc1)NC(=O)[C@H](CC(C)C)NC(=O)OCc1ccccc1 (Cbz-Leu-Phe-[Dap](Ac)-aldehyde)		2.4		6				
